According to patent publication US10472380B2, “Platinum compounds having a heterocycle ligand, nanoparticles, and uses thereof” (PLACON THERAPEUTICS, INC., priority 2013, dated 2019):

Legend:
[1] = test system: A549 cells; test: DNA platination in cells, DNA extracts analyzed by GFAA; assay type: cell-based; conditions: 60 μM, 2 hours at 37° C.
Procedure: 5×10^6 A549 cells were received in tubes from Nobel Life Sciences in 10% FBS, 5% DMSO. Upon thawing, cells were washed with RPMI to remove the DMSO. […] Cells were then lysed and applied to a DNEasy™ DNA purification kit. The resulting DNA extracts were then analyzed by GFAA.

[2] = test system: calf thymus DNA; conditions: general statement on classic platinum agents; cited from earlier work
[3] = test system: A549 tumor cell line; test: CellTiter-Glo cell viability assay in A549 tumor cell line; assay type: cell-based; conditions: CellTiter-Glo luminescence
Procedure: The cell suspension was transferred to a centrifuge tube and centrifuged at 800-1000 rpm for 3-5 minutes.
The lyophilized CellTiter-Glo substrate was equilibrated to room temperature prior to use.
The contents were mixed for 2 minutes on an orbital shaker to induce cell lysis.

Row | Compound | DNA platination, % of Cisplatin standard [1] [%] | DNA associated platinum in this type of experiment [2] | IC50 [3] [µM]
1 | N.N.[Cl][Pt][Cl] [Cisplatin] | 100 | high degree of DNA associated platinum | –
2 | Di-1,1,3,3-tetramethylbutylcarbamate, ammonia quinoplatinium (II) [Compound 19] | – | – | 4.3
